Like-named read-outs stand apart in the source and are kept apart here.
Legend:
[1] = tested on: IL-12 induced STAT4 phophorylation mediated by Tyk2/JAK2 (heterodimeric complex); assay: IL-12 Induced pSTAT4 in Human PBMC; format: cell-based; conditions: 1.7 ng/mL IL-12
From the text: The IL-12 Induced pSTAT4 assay evaluates the inhibition of IL-12 induced STAT4 phophorylation mediated by Tyk2/JAK2 (heterodimeric complex).

[2] = tested on: GM-CSF induced STAT5 phosphorylation mediated by the JAK2/JAK2 homdimeric complex; assay: GM-CSF Induced pSTAT5 in Human PBMC
From the text: Human PBMC are isolated from buffy coat and are stored frozen for assays as needed.

[3] = Homo sapiens, PBMC, 20 min, read-out: PBMC_GMCSF_pSTAT5 IC50, human PBMC, GM-CSF 5 ng/mL for 20 minutes, pSTAT5
[4] = read-out: PBMC_GMCSF_pSTAT5 IC50, human PBMC, GM-CSF 5 ng/mL for 20 minutes, pSTAT5

IC50 [1] [nM] | IC50 [2, 3] [nM] | IC50 [2, 4] [nM] | SMILES | IC50 ([2]; Homo sapiens, PBMC, 20 min, read-out: PBMC_GMCSF_pSTAT5 IC50) [nM]
< 100 | > 50000 |  | CNc1cc(Nc2cc(Cl)cn(C3CCCOC3)c2=O)nc2c(C(=O)N[C@H]3C[C@H]3F)cnn12 (some centres unmarked) [I-693] | 
< 100 | > 50000 |  | CNc1cc(Nc2cccn(-c3nc(C)co3)c2=O)nc2c(C(=O)N[C@@H]3CC[C@@H]3O)cnn12 [I-706] | 
< 100 | > 50000 |  | CNc1cc(Nc2cccc(N3CCC34COC4)n2)nc2c(C(=O)N[C@H]3C[C@H]3F)cnn12 [I-709] | 
100 to 500 | > 50000 |  | CNc1cc(Nc2cccnc2OC)nc2c(C(=O)NO)cnn12 [I-710, N-hydroxy-5-((2-methoxypyridin-3-yl)amino)-7-(methylamino)pyrazolo[1,5-a]pyrimidine-3-carboxamide] | 
< 100 | > 50000 |  | CNc1cc(Nc2cc(Cl)cn(C3CCCOC3)c2=O)nc2c(C(=O)NC3CC3)cnn12 (centres unmarked) [I-711] | 
< 100 | > 12500 |  | CNc1cc(Nc2cc(Cl)cn(C3CCOCC3)c2=O)nc2c(C(=O)N[C@H]3CC[C@@H]3O)cnn12 [I-712] | 
< 100 | > 2500 |  | CNc1cc(Nc2cccn(-c3ncco3)c2=O)nc2c(C(=O)NC3CC3)cnn12 [I-715] | 
< 100 | > 2500 |  | CNc1cc(Nc2cccn(-c3ncco3)c2=O)nc2c(C(=O)N[C@H]3C[C@H]3F)cnn12 [I-716] | 
< 100 | > 12500 |  | CNc1cc(Nc2cccn(-c3cnc(C)o3)c2=O)nc2c(C(=O)N[C@H]3C[C@H]3F)cnn12 [I-718] | 
< 100 |  | > 12500 | CNc1cc(Nc2cccn([C@H]3CC[C@](C)(OC)CC3)c2=O)nc2c(C(=O)N[C@@H]3CC[C@@H]3O)cnn12 [I-722, N-((1S,2R)-2-hydroxycyclobutyl)-5-((1-((1R,4S)-4-methoxy-4-methylcyclohexyl)-2-oxo-1,2-dihydropyridin-3-yl)amino)-7-(methylamino)pyrazolo[1,5-a]pyrimidine-3-carboxamide] | 
< 100 | > 2500 |  | CNc1cc(Nc2cccn([C@H]3CCCOC3)c2=O)nc2c(C(=O)N[C@@H]3CC[C@H]3O)cnn12 [I-725] | 
< 100 | > 2500 |  | CNc1cc(Nc2cc(Cl)cn(C3CCCN(C)C3)c2=O)nc2c(C(=O)NC3CC3)cnn12 (centres unmarked) [I-740] | 
100 to 500 | > 12500 |  | CNc1cc(Nc2cccn(-c3cccnc3)c2=O)nc2c(C(=O)NC3CC3)cnn12 [I-747] | 
< 100 | > 2500 |  | CNc1cc(Nc2cccn(-c3cccnc3)c2=O)nc2c(C(=O)N[C@@H]3C[C@@H]3F)cnn12 [I-748] | 
< 100 | > 2500 |  | CNc1cc(Nc2cccc3ocnc23)nc2c(C(=O)NCC(C)(C)CO)cnn12 [I-750] | 
< 100 | > 12500 |  | CNc1cc(Nc2cccn([C@@H]3CCCOC3)c2=O)nc2c(C(=O)N[C@H]3CC[C@H]3O)cnn12 [I-751] | 
< 100 | > 50000 |  | CNc1cc(Nc2cc(Cl)cn(C3CCCN(C)C3)c2=O)nc2c(C(=O)N[C@@H]3C[C@@H]3F)cnn12 (some centres unmarked) [I-759] | 
< 100 | > 2500 |  | CNc1cc(Nc2cccn(-c3cnco3)c2=O)nc2c(C(=O)N[C@@H]3C[C@@H]3F)cnn12 [I-762] | 
< 100 |  | > 2500 | CNc1cc(Nc2cccc3ocnc23)nc2c(C(=O)N[C@@H]3CC[C@@H]3O)cnn12 [I-770] | 
< 100 | > 300 |  | CNc1cc(Nc2cc(Cl)cn([C@H]3CCCOC3)c2=O)nc2c(C(=O)N[C@@H]3C[C@@H]3F)cnn12 [I-772] | 
< 100 | > 12500 |  | CNc1cc(Nc2cc(Cl)cn([C@@H]3CCCOC3)c2=O)nc2c(C(=O)N[C@@H]3C[C@@H]3F)cnn12 [I-773] | 
< 100 | > 50000 |  | CNc1cc(Nc2cc(Cl)cn([C@H]3CCCOC3)c2=O)nc2c(C(=O)NC3CC3)cnn12 [I-782] | 
< 100 | > 50000 |  | CNc1cc(Nc2cc(Cl)cn([C@@H]3CCCOC3)c2=O)nc2c(C(=O)NC3CC3)cnn12 [I-783] | 
< 100 | > 12500 |  | CNc1cc(Nc2cc(Cl)cn(C3CCN(C)CC3)c2=O)nc2c(C(=O)N[C@@H]3C[C@@H]3F)cnn12 [I-789] | 
< 100 | > 12500 |  | CNc1cc(Nc2cccn(-c3ocnc3C)c2=O)nc2c(C(=O)N[C@@H]3C[C@@H]3F)cnn12 [I-790] | 
< 100 | > 12500 |  | CNc1cc(Nc2cccn(-c3ccccn3)c2=O)nc2c(C(=O)N[C@H]3CC[C@H]3O)cnn12 [I-805] | 
< 100 | > 50000 |  | CNc1cc(Nc2cccn([C@H]3[C@@H]4COC[C@@H]43)c2=O)nc2c(C(=O)N[C@@H]3C[C@@H]3F)cnn12 [I-811] | 

IC50 [1] [nM] | IC50 [2, 3] [nM] | IC50 [2, 4] [nM] | SMILES | IC50 ([2]; Homo sapiens, PBMC, 20 min, read-out: PBMC_GMCSF_pSTAT5 IC50) [nM]
< 100 | > 50000 |  | CNc1cc(Nc2cc(Cl)cn([C@@H]3CCCN(C)C3)c2=O)nc2c(C(=O)NC3CC3)cnn12 [I-819] | 
< 100 | > 12500 |  | CNc1cc(Nc2cc(Cl)cn([C@H]3CCCN(C)C3)c2=O)nc2c(C(=O)NC3CC3)cnn12 [I-820] | 
< 100 | > 50000 |  | CNc1cc(Nc2cc(Cl)cn(C3CCOCC3)c2=O)nc2c(C(=O)N[C@@H]3CC[C@H]3O)cnn12 [I-825] | 
100 to 500 | > 50000 |  | CNc1cc(Nc2cccc(N3CCO[C@]4(CCOC4)C3)n2)nc2c(C(=O)NC3CC3)cnn12 [I-827] | 
< 100 | > 50000 |  | CNc1cc(Nc2cccn([C@H]3CC[C@H](OC)CC3)c2=O)nc2c(C(=O)NC[C@H](C)CO)cnn12 [I-829] | 
100 to 500 | > 50000 |  | CNc1cc(Nc2cccc3ocnc23)nc2c(C(=O)N[C@H]3COC[C@H]3O)cnn12 [I-834] | 
< 100 | > 12500 |  | CNc1cc(-c2cn(CCN3CCCCC3)c3ncccc23)nc2c(C(=O)N[C@@H]3CC[C@H]3O)cnn12 [I-837] | 
< 100 | > 50000 |  | CNc1cc(Nc2cccn([C@@H]3CCC[C@H](OC)C3)c2=O)nc2c(C(=O)N[C@@H]3C[C@@H]3F)cnn12 [I-840] | 
< 100 | > 50000 |  | CNc1cc(-c2cn(C(C)C)c3ncccc23)nc2c(C(=O)N[C@@H]3COC[C@@H]3O)cnn12 [I-842, N-((3R,4R)-4-hydroxytetrahydrofuran-3-yl)-5-(1-isopropyl-1H-pyrrolo[2,3-b]pyridin-3-yl)-7-(methylamino)pyrazolo[1,5-a]pyrimidine-3-carboxamide] | 
100 to 500 | > 50000 |  | CNc1cc(Nc2cccn(C3CCN(CCF)CC3)c2=O)nc2c(C(=O)NCC(C)(C)CO)cnn12 [I-847] | 
100 to 500 | > 50000 |  | CNc1cc(Nc2cccn(C3CCCN(CCF)C3)c2=O)nc2c(C(=O)N[C@@H]3C[C@@H]3F)cnn12 (some centres unmarked) [I-849] | 
< 100 | > 50000 |  | CNc1cc(Nc2cc(Cl)cn([C@H]3CCCN(C)C3)c2=O)nc2c(C(=O)N[C@@H]3C[C@@H]3F)cnn12 [I-854] | 
100 to 500 |  | > 50000 | CNc1cc(Nc2cccc3ocnc23)nc2c(C(=O)N[C@@H]3CC[C@H]3O)cnn12 [I-857] | 
< 100 | > 50000 |  | CNc1cc(Nc2cccc(-c3cn(C)nc3F)n2)nc2c(C(=O)N[C@@H]3C[C@@H]3F)cnn12 [I-860] | 
< 100 | > 12500 |  | CNc1cc(Nc2cc(Cl)cn(C3CCN(C)CC3)c2=O)nc2c(C(=O)NC3CC3)cnn12 [I-883] | 
< 100 | > 300 |  | CNc1cc(-c2cn(CCN3CCOCC3)c3ncccc23)nc2c(C(=O)N[C@H]3CC[C@@H]3OC)cnn12 [I-886] | 
< 100 | > 50000 |  | CNC(=O)c1occc1Nc1cc(NC)n2ncc(C(=O)NC3CC3)c2n1 [I-887] | 
< 100 | > 50000 |  | CNC(=O)c1occc1Nc1cc(NC)n2ncc(C(=O)N[C@@H]3C[C@@H]3F)c2n1 [I-888, N-((1R,2S)-2-fluorocyclopropyl)-7-(methylamino)-5-((2-(methylcarbamoyl)furan-3-yl)amino)pyrazolo[1,5-a]pyrimidine-3-carboxamide] | 
< 100 | > 50000 |  | CNc1cc(Nc2cccn3ccnc23)nc2c(C(=O)NC3CC3)cnn12 [I-891] | 
< 100 | > 12500 |  | CNc1cc(Nc2cccn3ccnc23)nc2c(C(=O)N[C@@H]3C[C@@H]3F)cnn12 [I-892] | 
< 100 |  | > 50000 | CNc1cc(Nc2cccn(-c3ccccn3)c2=O)nc2c(C(=O)N[C@@H]3CC[C@H]3OC)cnn12 [I-908, N-((1R,2R)-2-methoxycyclobutyl)-7-(methylamino)-5-((2-oxo-2H-[1,2′-bipyridin]-3-yl)amino)pyrazolo[1,5-a]pyrimidine-3-carboxamide] | 
< 100 | > 50000 |  | CNC(=O)c1nscc1Nc1cc(NC)n2ncc(C(=O)N[C@@H]3C[C@@H]3F)c2n1 [I-914] | 
< 100 | > 50000 |  | CNc1cc(Nc2cccn([C@H]3CC[C@@H]3O)c2=O)nc2c(C(=O)N[C@@H]3C[C@@H]3F)cnn12 [I-916] | 
< 100 | > 50000 |  | CNc1cc(Nc2cccn(C(C)C)c2=O)nc2c(C(=O)N[C@@H]3CC[C@H]3O)cnn12 [I-918] | 
< 100 | > 50000 |  | CNc1cc(Nc2cc(Cl)cn(C3CCN(C)CC3)c2=O)nc2c(C(=O)N[C@@H]3CC[C@H]3O)cnn12 [I-930] | 
< 100 | > 50000 |  | CNc1cc(Nc2cccn(C3CCCCC3)c2=O)nc2c(C(=O)N[C@@H]3CC[C@H]3O)cnn12 [I-943] | 
< 100 | > 50000 |  | CNc1cc(Nc2cccn(-c3cccc(F)c3)c2=O)nc2c(C(=O)N[C@@H]3CC[C@H]3O)cnn12 [I-946] | 

SMILES | IC50 [1] [nM] | IC50 [2, 3] [nM] | IC50 [2, 4] [nM] | IC50 ([2]; Homo sapiens, PBMC, 20 min, read-out: PBMC_GMCSF_pSTAT5 IC50) [nM]
CCONC(=O)c1cnn2c(NC)cc(Nc3cccn(-c4ncccc4F)c3=O)nc12 [I-798, N-ethoxy-5-((3′-fluoro-2-oxo-2H-[1,2′-bipyridin]-3-yl)amino)-7-(methylamino) pyrazolo[1,5-a]pyrimidine-3-carboxamide] | […] |  |  | > 50000

From patent US10577373B2, “TYK2 inhibitors and uses thereof” (Nimbus Lakshmi, Inc., priority 2017, dated 2020)
